Experimental data published in patent US20010029636A1, “Hair bleaching and colouring compositions” (priority 1999, published 2001).

Test: Cuticle abrasion method after bleaching of hair switches
Conditions: solution 2 versus solution 1
Protocol: The bleaching solutions 1 and 2 were each divided into three parts A, B and C. A was adjusted to pH 9.7, B to pH 10.1 and C to pH 10.5. Each solution was adjusted to the required pH with ammonium hydroxide (ex sigma, 28.1% active). The six solutions were each dosed (1.6 ml/g hair) onto a separate Spanish hair switch (8 g, 8″, ex Hugo Royer Hair Suppliers) in a disposable petri dish using an automatic pipette. Each switch was then agitated for 90 sec using a spoon ended plastic spatula. […] Each switch was then rinsed and left to dry naturally. Step 3: Cuticle Abrasion Method This method provides a measure of the extent of hair damage following the bleaching step. […] Rinse and repeat. The base wash used is 12% SLES, 2% CAPB in water. Dry them overnight. […] Record the initial weight of the hair. Add 200 ml of distilled water to the blender, making sure that the hair is covered with water. […] Transfer the liquid to a fresh tube. Wash the blender and add this, to the tube, as well. Pour the supernatant in 4×50 ml centrifuge tubes and centrifuge at 4300 rpm for 10 mins, 22° C. Pour the pellet on the filters, wash the tube and add this as well. Transfer the supernatant to centrifuge tubes and centrifuge at 4300 rpm for 10 min. Transfer the pellet to a beaker, wash the tube 2-3 times and top with water until 50 ml. Freeze them until solid. Freeze dry them for 24 hours in Modulyo freeze drier. Once dry, weigh amount of cuticle recovered. Final measure is calculated as follows: […] This measure provides the % weight of cuticle abraded from the hair fibres which reflects the state of damage of the hair tested. Thus the greater amount of cuticle recovered the more damaged the tested hair.

## CC(C)CCC[C@@H](C)[C@H]1CC[C@H]2[C@@H]3CC=C4C[C@@H](O)CC[C@]4(C)[C@H]3CC[C@]12C [cholesterol]
pH 9.7
  % reduction in damage of hair when cholesterol present: 3.95%
pH 10.1
  % reduction in damage of hair when cholesterol present: 12.211%
pH 10.5
  % reduction in damage of hair when cholesterol present: 30.902%
